# System: 425362-245-T-J1 tumor spheroids, viability % test/control
# Experiment: Anticancer human tumor 425362-245-T-J1 patient-derived melanoma cell line growth inhibition
# Conditions: spheroids with HUVEC and MSC; for IC50: curve of first compound; for viability, T/C: stronger effect = lower value
# From the text: Multicellular complex tumor spheroid response to DNA repair inhibitors in combination with DNA-damaging drugs
# This study explores the anticancer activities of DNA-damaging drugs and inhibitors of DNA damage repair, both as single agents and in combinations. Complex tumor spheroids comprised of malignant cells, endothelial cells and mesenchymal stem cells served as an in vitro model for human solid tumors. This model system incorporates physiologically relevant features and patient-derived or established malignant cell lines with clinically relevant genetic alterations from many tumor types. Twenty-six patient-derived or established malignant cell lines were evaluated representing sarcoma, melanoma, small cell lung cancer (SCLC), non-small cell lung cancer (NSCLC), as well as bladder, ovarian and pancreatic cancers. The concentration ranges selected for each drug and investigational agent were based upon clinically achievable concentrations if the clinical Cmax of the agent was known.
# Compounds. The drugs and compounds olaparib (NSC753686), talazoparib (NSC767125), berzosertib (NSC777718), elimusertib (NSC800525), nedisertib (NSC802822), VX-984 (NSC792969), AZD-1390 (NSC803789), temozolomide (NSC362856), topotecan (NSC609699), trabectedin (NSC813783), staurosporine (NSC755774), and gemcitabine (NSC613327) were obtained from the National Cancer Institute (NCI) Developmental Therapeutics Program Chemical Repository. The FDA-approved anticancer drug set is available from the Developmental Therapeutics Program at https://dtp.cancer.gov/organization/dscb/obtaining/available_plates.htm. […] The stock solutions were prepared in dimethyl sulfoxide (DMSO, Sigma-Aldrich, St. Louis, MO, cat. D2650) at 400-fold the tested concentration and stored at -70 degrees C. Prior to their use, the stock solutions were diluted in fresh medium and the final DMSO concentration in the assay was 0.25% (v/v). All drugs and investigational agents were tested over a range starting from a high concentration at or near the clinical Cmax and decreasing in half-log increments. If the clinical Cmax for an agent had not been determined, the highest concentration tested was 10 microM.
# Cell Lines. The patient-derived cancer cell (PDC) lines: 156681-154-R-J1-PDC, 283228-195-R-J1-PDC, 287954-098-R-J1-PDC, 292921-168-R-J2-PDC, 349418-098-R-PDC, 425362-245-T-J1-PDC, 556581-035-R-J1-PDC, and BL0293-F563-PDC were received from the NCI Patient-Derived Models Repository (PDMR, https://pdmr.cancer.gov). The established cell lines HS-SY-2 (RRID:CVCL_8719), MPNST, and SYO-1 (RRID:CVCL_7146) were obtained from the Sloan Kettering Institute. The alveolar soft parts sarcoma cell line ASPS-1 (RRID:CVCL_S738) was established at the NCI and grown from internal seed stocks. The following established cell lines were purchased from the American Type Culture Collection (ATCC, Manassas, VA): G-401 (ATCC, cat. CRL-1441, RRID:CVCL_0270), SW982 (ATCC, cat. HTB-93, RRID:CVCL_1734), VA-ES-BJ (ATCC, cat. CRL-2138, RRID:CVCL_1785), NCI-H719 (ATCC, cat. CRL-5837, RRID:CVCL_1582), NCI-H196 (ATCC, cat. CRL-5823, RRID:CVCL_1509), NCI-H841 (ATCC, cat. CRL-5845, RRID:CVCL_1595), NCI-H1618 (ATCC, cat. CRL-5879, RRID:CVCL_1480), NCI-H1876 (ATCC, cat. CRL-5902, RRID:CVCL_1503), DMS 114 (ATCC, cat. CRL-2066; RRID:CVCL_1174), NCI-H211 (ATCC, cat. CRL-5824; RRID:CVCL_1529), and SW 1271 (ATCC, cat. CRL-2177, RRID:CVCL_1716). The small cell lung cancer cell line COR-L88 was purchased from Sigma-Aldrich (cat. 92031917-1VL, RRID:CVCL_1141). The non-small cell lung cancer cell lines NCI-H226 (RRID:CVCL_1544) and NCI-H322M (RRID:CVCL_1557) were established at the NCI and grown from internal seed stocks. Pooled donor human umbilical vein endothelial cells (HUVEC, Lonza, cat. CC-2519) and human mesenchymal stem cells (hMSC, Lonza, cat. PT-2501) were purchased from Lonza (Walkersville, MD).
# Cell Culture. All cells were maintained in an incubator at 37 degrees C and 5% CO2 with 95% humidity. […]
# 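Also: spheroids exposed to agents for 7 days.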
# 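For viability, T/C in this document: 100% = DMSO vehicle control viability.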
smiles,measurement,setting,value
Cc1sc2c(c1C)C(c1ccc(Cl)cc1)=NC(CC(=O)Nc1ccc(O)cc1)c1nnc(C)n1-2 (stereo not given) + CC[C@@]1(O)C(=O)OCc2c1cc1n(c2=O)Cc2cc3c(CN(C)C)c(O)ccc3nc2-1,IC50,second compound 0.003 µM,55 nM
same,IC50,second compound 0.00949 µM,52.3 nM
same,IC50,second compound 0.03 µM,< 9.49 nM
same,IC50,second compound 0.0949 µM,< 9.49 nM
same,IC50,second compound 0.3 µM,< 9.49 nM
same,"viability, T/C","second compound 0.003 µM, first compound 0.00949 µM",90.7%
same,"viability, T/C","second compound 0.003 µM, first compound 0.03 µM",67.6%
same,"viability, T/C","second compound 0.003 µM, first compound 0.0949 µM",35%
same,"viability, T/C","second compound 0.003 µM, first compound 0.3 µM",7.09%
same,"viability, T/C","second compound 0.003 µM, first compound 0.949 µM",2.44%
same,"viability, T/C","second compound 0.003 µM, first compound 3 µM",1.89%
same,"viability, T/C","second compound 0.00949 µM, first compound 0.00949 µM",78.9%
same,"viability, T/C","second compound 0.00949 µM, first compound 0.03 µM",68.7%
same,"viability, T/C","second compound 0.00949 µM, first compound 0.0949 µM",30%
same,"viability, T/C","second compound 0.00949 µM, first compound 0.3 µM",9.43%
same,"viability, T/C","second compound 0.00949 µM, first compound 0.949 µM",2.81%
same,"viability, T/C","second compound 0.00949 µM, first compound 3 µM",2.08%
same,"viability, T/C","second compound 0.03 µM, first compound 0.00949 µM",36%
same,"viability, T/C","second compound 0.03 µM, first compound 0.03 µM",24.5%
same,"viability, T/C","second compound 0.03 µM, first compound 0.0949 µM",20.9%
same,"viability, T/C","second compound 0.03 µM, first compound 0.3 µM",8.2%
same,"viability, T/C","second compound 0.03 µM, first compound 0.949 µM",2.92%
same,"viability, T/C","second compound 0.03 µM, first compound 3 µM",1.49%
same,"viability, T/C","second compound 0.0949 µM, first compound 0.00949 µM",6.49%
same,"viability, T/C","second compound 0.0949 µM, first compound 0.03 µM",7.18%
same,"viability, T/C","second compound 0.0949 µM, first compound 0.0949 µM",5.96%
same,"viability, T/C","second compound 0.0949 µM, first compound 0.3 µM",2%
same,"viability, T/C","second compound 0.0949 µM, first compound 0.949 µM",1.05%
same,"viability, T/C","second compound 0.0949 µM, first compound 3 µM",1.03%
same,"viability, T/C","second compound 0.3 µM, first compound 0.00949 µM",2.2%
same,"viability, T/C","second compound 0.3 µM, first compound 0.03 µM",1.82%
same,"viability, T/C","second compound 0.3 µM, first compound 0.0949 µM",1.38%
same,"viability, T/C","second compound 0.3 µM, first compound 0.3 µM",1.33%
same,"viability, T/C","second compound 0.3 µM, first compound 0.949 µM",0.79%
same,"viability, T/C","second compound 0.3 µM, first compound 3 µM",0.59%
